Data on 1 compound can be found in patent publication US5137913A, “Diaryl ether cyclic ethers” (Imperial Chemical Industries PLC, priority 1989, dated 1992).

In assay [1] the test system is 5-LO (LTB4) in heparinised human blood. Nature of the assay: In vitro heparinised human blood challenged with A23187, LTB4 radioimmunoassay (test b). The class given is cell-based. The method, then: b) An in vitro assay system involving incubating a test compound with heparinised human blood, prior to challenge with the calcium ionophore A23187 and then indirectly measuring the inhibitory effects on 5-LO by assaying the amount of LTB4 using the specific radioimmunoassay described by Carey and Forder (F. Carey and R. A. Forder, Brit. J. Pharmacol. 1985, 84, 34P) which involves the use of a protein-LTB4 conjugate produced using the procedure of Young et alia (Prostaglandins, 1983, 26(4), 605-613). The effects of a test compound on the enzyme cyclooxygenase (which is involved in the alternative metabolic pathway for arachidonic acid and gives rise to prostaglandins, thromboxanes and related metabolites) may be measured at the same time using the specific radioimmunoassay for thromboxane B2 (TxB2) described by Carey and Forder (see above). This test provides an indication of the effects of a test compound against 5-LO and also cyclooxygenase in the presence of blood cells and proteins. It permits the selectivity of the inhibitory effect on 5-LO or cyclooxygenase to be assessed.

The subject of another assay is 5-LO (LTB4). Nature of the assay: Ex vivo assay: administration of compound, blood collection, challenge with A23187, LTB4 radioimmunoassay (test c). Conditions: oral. Type of assay: in vivo. As to the method: c) An ex vivo assay system, which is a variation of test b) above, involving administration of a test compound (usually orally as the suspension produced when a solution of the test compound in dimethylsulphoxide is added to carboxymethylcellulose), blood collection, heparinisation, challenge with A23187 and radioimmunoassay of LTB4 and TxB2. This test provides an indication of the bioavailability of a test compound as an inhibitor of 5-LO or cyclooxygenase.

The term IC50 denotes the midpoint of a concentration-inhibition curve. Low readings indicate greater potency in that assay, high ones weaker potency in that assay. What is called ED50 is the dose that gives a 50% effect, or the effect in half of the subjects. A lower ED50 goes with greater potency. In assay [1], `CCC1(c2cccc(Sc3ccc4ccccc4c3)c2)COC(C)(C)O1` (centres unmarked) [Example 1, 4-ethyl-2,2-dimethyl-4-[3-(naphth-2-ylthio)phenyl]-1,3-dioxolane] displayed an IC50 of 0.5 µM. Further, the ED50 in the assay on 5-LO (LTB4) was 3 mg/kg.
